This is an account of results in patent US8269000B2, “Substituted pyrimidine and triazine compounds” (Gruenenthal GmbH, priority 2008, dated 2012).

The target in the first assay is T1, rat B1R (Rattus norvegicus, UniProt P97583).
T1 construct: expressed in transfected cells; host or cells: CHO K1 cells
T1 sequence (P97583 1-337): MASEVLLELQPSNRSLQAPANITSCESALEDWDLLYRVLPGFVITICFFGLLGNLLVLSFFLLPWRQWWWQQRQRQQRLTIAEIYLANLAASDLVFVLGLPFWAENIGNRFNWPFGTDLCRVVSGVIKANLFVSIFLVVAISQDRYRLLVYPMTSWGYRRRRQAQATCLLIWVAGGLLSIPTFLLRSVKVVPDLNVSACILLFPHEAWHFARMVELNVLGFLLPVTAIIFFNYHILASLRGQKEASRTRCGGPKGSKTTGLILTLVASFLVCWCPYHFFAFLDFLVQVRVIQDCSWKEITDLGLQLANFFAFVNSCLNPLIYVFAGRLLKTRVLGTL
Nature of the assay: FLIPR Ca2+ functional study on bradykinin receptor 1 (rB1R CHO K1 cells). The assay is classed as cell-based. The conditions noted are these: % inhibition rat B1R at 10 μM. Put shortly: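 Antagonism was calculated as % of maximal inhibition of the Ca2+ rise triggered by agonist at EC80 (Lys-Des-Arg9-bradykinin for hB1R, Des-Arg9-bradykinin for rB1R), added 10-20 min after test compound (10 μM or serial dilutions for IC50) to Fluo-4-loaded transfected CHO K1 cells on FLIPR. Duplicates or triplicates, ≥2 independent runs.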
`COc1cc(C)c(S(=O)(=O)N2c3ccccc3C[C@H]2COc2ccnc(N3CCC(N4CCN(C)CC4)CC3)n2)c(C)c1` [H_CC-018, (2S)-1-(4-methoxy-2,6-dimethylphenyl)sulfonyl-2-[[2-[4-(4-methyl-1-piperazinyl)-1-pipendinyl]-4-pyrimidinyl]oxymethyl]indoline]: the “% inh. (rat B1R) 10 μM” value is 91%.

The assay is the same for the next values; noted with them: CHO-K1, % inhibition rat B1R at 10 μM, read-out: % inh. (rat B1R) 10 μM.
For `COc1cc(C)c(S(=O)(=O)N2CCCCC2COc2nccc(N3CCC(O)(c4cccnc4)CC3)n2)c(C)c1` (stereo not drawn) [G_CC-067, 1-[2-[[1-(4-methoxy-2,6-dimethylphenyl)sulfonyl-2-piperidinyl]methoxy]-4-pyrimidinyl]-4-(3-pyridyl)-4-piperidinol], the inhibition at 10 µM is 104%.
In the case of `COc1cc(C)c(S(=O)(=O)N(C)CCOc2ccnc(N(C)CCN3CCC(c4ccccc4)(N4CCCC4)CC3)n2)c(C)c1` [H_CC-059, 4-methoxy-N,2,6-trimethyl-N-[2-[2-[methyl-[2-(4-phenyl-4-pyrrolidin-1-yl-piperidin-1-yl)-ethyl]-amino]-pyrimidin-4-yl]oxy-ethyl]-benzenesulfonic acid amide], the inhibition at 10 µM was determined as 91%.
With `COc1cc(C)c(S(=O)(=O)N2CC(Oc3ccnc(N(C)CCCN4CCC(c5ccccc5)(N(C)C)CC4)n3)C2)c(C)c1` [H_CC-074, 3-(4-dimethylamino-4-phenyl-piperidin-1-yl)-propyl-[4-[1-[(4-methoxy-2,6-dimethyl-phenyl)sulfonyl]-azetidin-3-yl]oxy-pyrimidin-2-yl]-methyl-amine], the inhibition at 10 µM was determined as 59%.
`COc1cc(C)c(S(=O)(=O)N(C)CCOc2nccc(N3CCC(O)(c4cccnc4)CC3)n2)c(C)c1` [G_CC-008, N-[2-[[4-[4-hydroxy-4-(3-pyridyl)-1-piperidinyl]-2-pyrimidinyl]oxy]ethyl]-4-methoxy-N,2,6-trimethylbenzenesulfonamide]: the inhibition at 10 µM is 59%.
In the case of `COc1cc(C)c(S(=O)(=O)N2CCC[C@H]2COc2ccnc(N3CCN(c4ncccn4)CC3)n2)c(C)c1` [H_CC-011, 4-[[(2S)-1-(4-methoxy-2,6-dimethylphenyl)sulfonyl-2-pyrrolidinyl]methoxy]-2-[4-(2-pyrimidinyl)-1-piperazinyl]pyrimidine], the inhibition at 10 µM worked out at 56%.
For the compound `CCCCC1(N(C)C)CCN(CCN(C)c2nccc(OC[C@@H]3CCCN3S(=O)(=O)c3c(C)cc(OC)cc3C)n2)CC1` [H_CC-056, 2-(4-butyl-4-dimethylamino-piperidin-1-yl)-ethyl-[4-[[(2S)-1-[(4-methoxy-2,6-dimethyl-phenyl)sulfonyl]-pyrrolidin-2-yl]-methoxy]-pyrimidin-2-yl]-methyl-amine], the inhibition at 10 µM was determined as 98%.
The same measure, in the same setting: the value for `COc1cc(C)c(S(=O)(=O)N(C)CCOc2ccnc(N(C)CCN3CCC(c4ccccc4)(N(C)C)CC3)n2)c(C)c1` [H_CC-067, N-[2-[2-[2-(4-dimethylamino-4-phenyl-piperidin-1-yl)-ethyl-methyl-amino]-pyrimidin-4-yl]oxy-ethyl]-4-methoxy-N,2,6-trimethyl-benzenesulfonic acid amide] was 59%; that for `COc1cc(C)c(S(=O)(=O)N2CCC[C@H]2COc2nccc(N(C)CCCN3CCC(c4ccccc4)(N(C)C)CC3)n2)c(C)c1` [G_CC-075, 3-(4-dimethylamino-4-phenyl-piperidin-1-yl)-propyl-[2-[[(2S)-1-[(4-methoxy-2,6-dimethyl-phenyl)sulfonyl]-pyrrolidin-2-yl]-methoxy]-pyrimidin-4-yl]-methyl-amine] was 104%; that for `COc1cc(C)c(S(=O)(=O)N2c3ccccc3C[C@H]2COc2ccnc(N(C)CCCN3CCC(c4ccccc4)(N(C)C)CC3)n2)c(C)c1` [H_CC-075, 3-(4-dimethylamino-4-phenyl-piperidin-1-yl)-propyl-[4-[[(2S)-1-[(4-methoxy-2,6-dimethyl-phenyl)sulfonyl]-2,3-dihydro-1H-indol-2-yl]-methoxy]-pyrimidin-2-yl]-methyl-amine] was 75%.
Turning to `CCCCC1(N(C)C)CCN(CCN(C)c2nccc(OCCN(C)S(=O)(=O)c3c(C)cc(OC)cc3C)n2)CC1` [H_CC-060, N-[2-[2-[2-(4-butyl-4-dimethylamino-piperidin-1-yl)-ethyl-methyl-amino]pyrimidin-4-yl]oxy-ethyl]-4-methoxy-N,2,6-trimethyl-benzenesulfonic acid amide], the inhibition at 10 µM came to 102%.
For `COc1cc(C)c(S(=O)(=O)N(C)CCOc2nccc(N(C)CCCN3CCC(c4ccccc4)(N(C)C)CC3)n2)c(C)c1` [G_CC-100, N-[2-[4-[3-(4-dimethylamino-4-phenyl-piperidin-1-yl)-propyl-methyl-amino]-pyrimidin-2-yl]oxy-ethyl]-4-methoxy-N,2,6-trimethyl-benzenesulfonic acid amide], the inhibition at 10 µM was 89%.
Still for that read-out and setting: to `COc1cc(C)c(S(=O)(=O)N2CCCCC2COc2nccc(N3CC4CC3CN4Cc3ccncc3)n2)c(C)c1` (stereo not drawn) [G_CC-056, 5-[2-[[1-(4-methoxy-2,6-dimethylphenyl)sulfonyl-2-piperidinyl]methoxy]-4-pyrimidinyl]-2-(4-pyridylmethyl)-2,5-diazabicyclo[2.2.1]heptane] belongs 98%; to `COc1cc(C)c(S(=O)(=O)N2CC(Oc3nccc(N(C)CCN4CCC(c5ccccc5)(N(C)C)CC4)n3)C2)c(C)c1` [G_CC-123, 2-(4-dimethylamino-4-phenyl-piperidin-1-yl)-ethyl-[2-[1-[(4-methoxy-2,6-dimethyl-phenyl)sulfonyl]-azetidin-3-yl]oxy-pyrimidin-4-yl]-methyl-amine], 81%; to `COc1cc(C)c(S(=O)(=O)N2CCCCC2COc2ccnc(N3CCCN(Cc4ccccn4)CC3)n2)c(C)c1` (stereo not drawn) [H_CC-042, 1-[4-[[1-[(4-methoxy-2,6-dimethyl-phenyl)sulfonyl]-piperidin-2-yl]-methoxy]-pyrimidin-2-yl]-4-(pyridin-2-yl-methyl)-[1,4]diazepan], 61%.
As for `COc1cc(C)c(S(=O)(=O)N(C)CCOc2ccnc(N3CCC(OCCN4CCCC4)(c4cccc(F)c4)CC3)n2)c(C)c1` [H_CC-090, N-[2-[2-[4-(3-fluorophenyl)-4-(2-pyrrolidin-1-yl-ethoxy)-piperidin-1-yl]-pyrimidin-4-yl]oxy-ethyl]-4-methoxy-N,2,6-trimethyl-benzenesulfonic acid amide], the inhibition at 10 µM is 83%.
On the same count and under the same terms, to `COc1cc(C)c(S(=O)(=O)N2CC(Oc3nccc(N4CCC(O)(c5cccnc5)CC4)n3)C2)c(C)c1` [G_CC-128, 1-[2-[1-[(4-methoxy-2,6-dimethyl-phenyl)sulfonyl]-azetidin-3-yl]oxy-pyrimidin-4-yl]-4-pyridin-3-yl-piperidin-4-ol] belongs 57%; to `COc1cc(C)c(S(=O)(=O)N2CCCC(Oc3ccnc(N4CCC(CCN5CCCCC5)CC4)n3)C2)c(C)c1` (stereo not drawn) [H_CC-041, 4-[[1-(4-methoxy-2,6-dimethylphenyl)sulfonyl-3-piperidinyl]oxy]-2-[4-[2-(1-piperidyl)ethyl]-1-piperidinyl]pyrimidine], 48%.
In the case of `COc1cc(C)c(S(=O)(=O)N2CC(Oc3ccnc(N(C)CCN4CCC(c5ccccc5)(N(C)C)CC4)n3)C2)c(C)c1` [H_CC-069, 2-(4-dimethylamino-4-phenyl-piperidin-1-yl)-ethyl-[4-[1-[(4-methoxy-2,6-dimethyl-phenyl)sulfonyl]-azetidin-3-yl]oxy-pyrimidin-2-yl]-methyl-amine], the inhibition at 10 µM stood at 52%.
The same measure, in the same setting: the value for `COc1cc(C)c(S(=O)(=O)N2CCCCC2COc2nccc(N3CCC(c4ccccc4)(N(C)C)CC3)n2)c(C)c1` (stereo not drawn) [G_CC-113, [1-[2-[[1-[(4-methoxy-2,6-dimethyl-phenyl)sulfonyl]-piperidin-2-yl]-methoxy]-pyrimidin-4-yl]-4-phenyl-piperidin-4-yl]-dimethyl-amine] was 79%; that for `COc1cc(C)c(S(=O)(=O)N2CCCCC2COc2nccc(N(C)CCCN3CCC(c4ccccc4)(N(C)C)CC3)n2)c(C)c1` (stereo not drawn) [G_CC-101, 3-(4-dimethylamino-4-phenyl-piperidin-1-yl)-propyl-[2-[[1-[(4-methoxy-2,6-dimethyl-phenyl)sulfonyl]-piperidin-2-yl]-methoxy]-pyrimidin-4-yl]-methyl-amine] was 105%; that for `COc1cc(C)c(S(=O)(=O)N2CCCCC2COc2nccc(N3CCC(Oc4ccccn4)CC3)n2)c(C)c1` (stereo not drawn) [G_CC-078, 2-[[1-[(4-methoxy-2,6-dimethyl-phenyl)sulfonyl]-piperidin-2-yl]-methoxy]-4-(4-pyridin-2-yloxy-piperidin-1-yl)-pyrimidine] was 98%.
Same read-out and setting: to `COc1cc(C)c(S(=O)(=O)N(C)CCOc2ccnc(N3CCC(OCCN4CCCC4)(c4cccnc4)CC3)n2)c(C)c1` [H_CC-033, 4-methoxy-N,2,6-trimethyl-N-[2-[[2-[4-(3-pyridyl)-4-(2-1-pyrrolidinylethoxy)-1-piperidinyl]-4-pyrimidinyl]oxy]ethyl]benzenesulfonamide] belongs 82%; to `COc1cc(C)c(S(=O)(=O)N2CCCCC2COc2ccnc(N3CCC(C)(N4CCOCC4)CC3)n2)c(C)c1` (stereo not drawn) [H_CC-081, 4-[1-[4-[[1-[(4-methoxy-2,6-dimethyl-phenyl)sulfonyl]-piperidin-2-yl]-methoxy]-pyrimidin-2-yl]-4-methyl-piperidin-4-yl]-morpholine], 61%.
